Measured values published in patent US20230085307A1, “PYRIDAZINONE COMPOUND AND HERBICIDE” (NISSAN CHEMICAL CORPORATION, priority 2019, published 2023).

Tests used:
[1] = system: southern crabgrass; assay: Test Example 4: herbicidal effect by soil treatment (Table 19, symbol F); type: in vivo, southern crabgrass (Digitaria ciliaris); details: amount of applied herbicide 320 g/ha
Procedure, shortened: (§1)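 Three weeks of greenhouse growth at 25° C. to 30° C. followed a uniform surface spray of water-diluted emulsion at a predetermined herbicide amount. Seeds had been sown beforehand under about 1.5 cm of sterilized diluvial soil. Grading followed criteria set out in an earlier test.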

[2] = system: barnyard grass; assay: Test Example 5: herbicidal effect by foliage application, plastic box (Table 20, symbol H); type: in vivo, barnyard grass (Echinochloa crus-galli); details: foliage application, 320 g/ha, evaluated three weeks after application
Procedure, shortened: (§2)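 Plants sown in sterilized diluvial soil and grown 14 days in a greenhouse at 25° C to 30° C, then sprayed on the foliage with the compound's emulsion diluted in water to a predetermined herbicide amount. Injury to weeds and crops scored three weeks after application on a visual rating scale.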

[3] = system: chickweed; assay: Test Example 4: herbicidal effect by soil treatment (Table 19, symbol P); type: in vivo, common chickweed (Stellaria media); details: amount of applied herbicide 320 g/ha
Procedure, shortened: as §1

[4] = system: oval-leafed pondweed; assay: Test Example 1: herbicidal activity, application before weed generation under submerged conditions (Table 16, symbol C); type: in vivo, oval-leafed pondweed (Monochoria vaginalis); details: 320 g/ha applied herbicide
Procedure, shortened: (§3)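 Alluvial soil was flooded to 4 cm depth, weed seeds were sown mixed and 2.5-leaf rice seedlings were transplanted. On sowing day, the compound's emulsion, diluted in water to a set dose, was applied to the water surface. Plants grew at 25–30 °C and were scored 0–5 after three weeks.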

[5] = system: chickweed; assay: Test Example 5: herbicidal effect by foliage application, plastic box (Table 20, symbol P); type: in vivo, common chickweed (Stellaria media); details: foliage application, 320 g/ha, evaluated three weeks after application
Procedure, shortened: as §2

[6] = system: redroot pigweed; assay: Test Example 4: herbicidal effect by soil treatment (Table 19, symbol N); type: in vivo, redroot pigweed (Amaranthus retroflexus); details: amount of applied herbicide 320 g/ha
Procedure, shortened: as §1

[7] = system: green foxtail; assay: Test Example 4: herbicidal effect by soil treatment (Table 19, symbol G); type: in vivo, green foxtail (Setaria viridis); details: amount of applied herbicide 320 g/ha
Procedure, shortened: as §1

[8] = system: wild oat; assay: Test Example 4: herbicidal effect by soil treatment (Table 19, symbol I); type: in vivo, wild oat (Avena fatua); details: amount of applied herbicide 320 g/ha
Procedure, shortened: as §1

[9] = system: blackgrass; assay: Test Example 5: herbicidal effect by foliage application, plastic box (Table 20, symbol J); type: in vivo, blackgrass (Alopecurus myosuroides); details: foliage application, 320 g/ha, evaluated three weeks after application
Procedure, shortened: as §2

[10] = system: wild oat; assay: Test Example 5: herbicidal effect by foliage application, plastic box (Table 20, symbol I); type: in vivo, wild oat (Avena fatua); details: foliage application, 320 g/ha, evaluated three weeks after application
Procedure, shortened: as §2

[11] = system: barnyard grass; assay: Test Example 4: herbicidal effect by soil treatment (Table 19, symbol H); type: in vivo, barnyard grass (Echinochloa crus-galli); details: amount of applied herbicide 320 g/ha
Procedure, shortened: as §1

[12] = system: barnyard grass; assay: Test Example 3: herbicidal effect by foliage application, Wagner pot (Table 18, symbol H); type: in vivo, barnyard grass (Echinochloa crus-galli); details: amount of applied herbicide 320 g/ha
Procedure, shortened: (§4)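 Plants were sown in alluvial soil held under 0.1–0.5 cm standing water and grown 14 days in a greenhouse at 25–30 °C. An emulsifiable formulation, water-diluted to the set dose, was then sprayed onto the foliage, and effects were scored three weeks later using previously defined criteria.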

[13] = system: blackgrass; assay: Test Example 4: herbicidal effect by soil treatment (Table 19, symbol J); type: in vivo, blackgrass (Alopecurus myosuroides); details: amount of applied herbicide 320 g/ha
Procedure, shortened: as §1

[14] = system: rice flat sedge; assay: Test Example 3: herbicidal effect by foliage application, Wagner pot (Table 18, symbol E); type: in vivo, rice flat sedge (Cyperus iria); details: amount of applied herbicide 320 g/ha
Procedure, shortened: as §4

[15] = system: lambsquarters; assay: Test Example 5: herbicidal effect by foliage application, plastic box (Table 20, symbol O); type: in vivo, lambsquarters (Chenopodium album); details: foliage application, 320 g/ha, evaluated three weeks after application
Procedure, shortened: as §2

[16] = system: velvetleaf; assay: Test Example 5: herbicidal effect by foliage application, plastic box (Table 20, symbol M); type: in vivo, velvetleaf (Abutilon theophrasti); details: foliage application, 320 g/ha, evaluated three weeks after application
Procedure, shortened: as §2

[17] = system: Japanese bulrush; assay: Test Example 1: herbicidal activity, application before weed generation under submerged conditions (Table 16, symbol B); type: in vivo, Japanese bulrush (Schoenoplectus juncoides); details: 320 g/ha applied herbicide
Procedure, shortened: as §3

[18] = system: redroot pigweed; assay: Test Example 5: herbicidal effect by foliage application, plastic box (Table 20, symbol N); type: in vivo, redroot pigweed (Amaranthus retroflexus); details: foliage application, 320 g/ha, evaluated three weeks after application
Procedure, shortened: as §2

[19] = system: green foxtail; assay: Test Example 5: herbicidal effect by foliage application, plastic box (Table 20, symbol G); type: in vivo, green foxtail (Setaria viridis); details: foliage application, 320 g/ha, evaluated three weeks after application
Procedure, shortened: as §2

[20] = system: persian speedwell; assay: Test Example 4: herbicidal effect by soil treatment (Table 19, symbol R); type: in vivo, Persian speedwell (Veronica persica); details: amount of applied herbicide 320 g/ha
Procedure, shortened: as §1

[21] = system: windgrass; assay: Test Example 5: herbicidal effect by foliage application, plastic box (Table 20, symbol L); type: in vivo, windgrass (Apera spica-venti); details: foliage application, 320 g/ha, evaluated three weeks after application
Procedure, shortened: as §2

[22] = system: late watergrass; assay: Test Example 1: herbicidal activity, application before weed generation under submerged conditions (Table 16, symbol A); type: in vivo, late watergrass (Echinochloa oryzicola); details: 320 g/ha applied herbicide
Procedure, shortened: as §3

[23] = system: Italian ryegrass; assay: Test Example 5: herbicidal effect by foliage application, plastic box (Table 20, symbol K); type: in vivo, Italian ryegrass (Lolium multiflorum); details: foliage application, 320 g/ha, evaluated three weeks after application
Procedure, shortened: as §2

[24] = system: Italian ryegrass; assay: Test Example 4: herbicidal effect by soil treatment (Table 19, symbol K); type: in vivo, Italian ryegrass (Lolium multiflorum); details: amount of applied herbicide 320 g/ha
Procedure, shortened: as §1

[25] = system: southern crabgrass; assay: Test Example 5: herbicidal effect by foliage application, plastic box (Table 20, symbol F); type: in vivo, southern crabgrass (Digitaria ciliaris); details: foliage application, 320 g/ha, evaluated three weeks after application
Procedure, shortened: as §2

[26] = system: windgrass; assay: Test Example 4: herbicidal effect by soil treatment (Table 19, symbol L); type: in vivo, windgrass (Apera spica-venti); details: amount of applied herbicide 320 g/ha
Procedure, shortened: as §1

[27] = system: persian speedwell; assay: Test Example 5: herbicidal effect by foliage application, plastic box (Table 20, symbol R); type: in vivo, Persian speedwell (Veronica persica); details: foliage application, 320 g/ha, evaluated three weeks after application
Procedure, shortened: as §2

[28] = system: velvetleaf; assay: Test Example 4: herbicidal effect by soil treatment (Table 19, symbol M); type: in vivo, velvetleaf (Abutilon theophrasti); details: amount of applied herbicide 320 g/ha
Procedure, shortened: as §1

[29] = system: lambsquarters; assay: Test Example 4: herbicidal effect by soil treatment (Table 19, symbol O); type: in vivo, lambsquarters (Chenopodium album); details: amount of applied herbicide 320 g/ha
Procedure, shortened: as §1

[30] = system: Chinese sprangletop; assay: Test Example 3: herbicidal effect by foliage application, Wagner pot (Table 18, symbol D); type: in vivo, chinese sprangletop (Leptochloa chinensis); details: amount of applied herbicide 320 g/ha
Procedure, shortened: as §4

COc1cc(F)ccc1-c1sc2ccc(NS(C)(=O)=O)cc2c1-c1c(O)c(C)nn(C)c1=O [2-183]
F: southern crabgrass, herbicidal effect rating [1]: 0 (Herbicidal rate of 5% or less (almost no effect)) | herbicidal effect on H: barnyard grass (criteria 0-5) [2]: 0 (Herbicidal rate of 5% or less (almost no effect)) | P: chickweed, herbicidal effect rating [3]: 3 (Herbicidal rate of 40% or more and less than 70%) | Herbicidal effect on C: oval-leafed pondweed (grade 0-5) [4]: 0 (Herbicidal rate of 5% or less (almost no effect)) | herbicidal effect on P: chickweed (criteria 0-5) [5]: 4 (Herbicidal rate of 70% or more and less than 90%) | N: redroot pigweed, herbicidal effect rating [6]: 0 (Herbicidal rate of 5% or less (almost no effect)) | G: green foxtail, herbicidal effect rating [7]: 0 (Herbicidal rate of 5% or less (almost no effect)) | I: wild oat, herbicidal effect rating [8]: 0 (Herbicidal rate of 5% or less (almost no effect)) | herbicidal effect on J: blackgrass (criteria 0-5) [9]: 4 (Herbicidal rate of 70% or more and less than 90%) | herbicidal effect on I: wild oat (criteria 0-5) [10]: 0 (Herbicidal rate of 5% or less (almost no effect)) | H: barnyard grass, herbicidal effect rating [11]: 0 (Herbicidal rate of 5% or less (almost no effect)) | herbicidal effect on H: barnyard grass [12]: 4 (Herbicidal rate of 70% or more and less than 90%) | J: blackgrass, herbicidal effect rating [13]: 0 (Herbicidal rate of 5% or less (almost no effect)) | herbicidal effect on E: rice flat sedge [14]: 0 (Herbicidal rate of 5% or less (almost no effect)) | herbicidal effect on O: lambsquarters (criteria 0-5) [15]: 3 (Herbicidal rate of 40% or more and less than 70%) | herbicidal effect on M: velvetleaf (criteria 0-5) [16]: 1 (Herbicidal rate of 5% or more and less than 20%) | Herbicidal effect on B: Japanese bulrush (grade 0-5) [17]: 0 (Herbicidal rate of 5% or less (almost no effect)) | herbicidal effect on N: redroot pigweed (criteria 0-5) [18]: 1 (Herbicidal rate of 5% or more and less than 20%) | herbicidal effect on G: green foxtail (criteria 0-5) [19]: 0 (Herbicidal rate of 5% or less (almost no effect)) | R: persian speedwell, herbicidal effect rating [20]: 3 (Herbicidal rate of 40% or more and less than 70%) | herbicidal effect on L: windgrass (criteria 0-5) [21]: 3 (Herbicidal rate of 40% or more and less than 70%) | Herbicidal effect on A: late watergrass (grade 0-5) [22]: 2 (Herbicidal rate of 20% or more and less than 40%) | herbicidal effect on K: Italian ryegrass (criteria 0-5) [23]: 0 (Herbicidal rate of 5% or less (almost no effect)) | K: Italian ryegrass, herbicidal effect rating [24]: 0 (Herbicidal rate of 5% or less (almost no effect)) | herbicidal effect on F: southern crabgrass (criteria 0-5) [25]: 0 (Herbicidal rate of 5% or less (almost no effect)) | L: windgrass, herbicidal effect rating [26]: 0 (Herbicidal rate of 5% or less (almost no effect)) | herbicidal effect on R: persian speedwell (criteria 0-5) [27]: 4 (Herbicidal rate of 70% or more and less than 90%) | M: velvetleaf, herbicidal effect rating [28]: 0 (Herbicidal rate of 5% or less (almost no effect)) | O: lambsquarters, herbicidal effect rating [29]: 0 (Herbicidal rate of 5% or less (almost no effect)) | herbicidal effect on D: Chinese sprangletop [30]: 3 (Herbicidal rate of 40% or more and less than 70%)

Cc1nn(C)c(=O)c(-c2c(-c3cccc(F)c3)sc3ccc(F)cc23)c1O [2-201]
F: southern crabgrass, herbicidal effect rating [1]: 3 (Herbicidal rate of 40% or more and less than 70%) | herbicidal effect on H: barnyard grass (criteria 0-5) [2]: 5 (Herbicidal rate of 90% or more (almost completely withered)) | P: chickweed, herbicidal effect rating [3]: 3 (Herbicidal rate of 40% or more and less than 70%) | Herbicidal effect on C: oval-leafed pondweed (grade 0-5) [4]: 0 (Herbicidal rate of 5% or less (almost no effect)) | herbicidal effect on P: chickweed (criteria 0-5) [5]: 5 (Herbicidal rate of 90% or more (almost completely withered)) | N: redroot pigweed, herbicidal effect rating [6]: 5 (Herbicidal rate of 90% or more (almost completely withered)) | G: green foxtail, herbicidal effect rating [7]: 3 (Herbicidal rate of 40% or more and less than 70%) | I: wild oat, herbicidal effect rating [8]: 0 (Herbicidal rate of 5% or less (almost no effect)) | herbicidal effect on J: blackgrass (criteria 0-5) [9]: 0 (Herbicidal rate of 5% or less (almost no effect)) | herbicidal effect on I: wild oat (criteria 0-5) [10]: 0 (Herbicidal rate of 5% or less (almost no effect)) | H: barnyard grass, herbicidal effect rating [11]: 4 (Herbicidal rate of 70% or more and less than 90%) | herbicidal effect on H: barnyard grass [12]: 5 (Herbicidal rate of 90% or more (almost completely withered)) | J: blackgrass, herbicidal effect rating [13]: 0 (Herbicidal rate of 5% or less (almost no effect)) | herbicidal effect on E: rice flat sedge [14]: 5 (Herbicidal rate of 90% or more (almost completely withered)) | herbicidal effect on O: lambsquarters (criteria 0-5) [15]: 5 (Herbicidal rate of 90% or more (almost completely withered)) | herbicidal effect on M: velvetleaf (criteria 0-5) [16]: 5 (Herbicidal rate of 90% or more (almost completely withered)) | Herbicidal effect on B: Japanese bulrush (grade 0-5) [17]: 2 (Herbicidal rate of 20% or more and less than 40%) | herbicidal effect on N: redroot pigweed (criteria 0-5) [18]: 5 (Herbicidal rate of 90% or more (almost completely withered)) | herbicidal effect on G: green foxtail (criteria 0-5) [19]: 4 (Herbicidal rate of 70% or more and less than 90%) | R: persian speedwell, herbicidal effect rating [20]: 0 (Herbicidal rate of 5% or less (almost no effect)) | herbicidal effect on L: windgrass (criteria 0-5) [21]: 4 (Herbicidal rate of 70% or more and less than 90%) | Herbicidal effect on A: late watergrass (grade 0-5) [22]: 2 (Herbicidal rate of 20% or more and less than 40%) | herbicidal effect on K: Italian ryegrass (criteria 0-5) [23]: 4 (Herbicidal rate of 70% or more and less than 90%) | K: Italian ryegrass, herbicidal effect rating [24]: 2 (Herbicidal rate of 20% or more and less than 40%) | herbicidal effect on F: southern crabgrass (criteria 0-5) [25]: 4 (Herbicidal rate of 70% or more and less than 90%) | L: windgrass, herbicidal effect rating [26]: 0 (Herbicidal rate of 5% or less (almost no effect)) | herbicidal effect on R: persian speedwell (criteria 0-5) [27]: 5 (Herbicidal rate of 90% or more (almost completely withered)) | M: velvetleaf, herbicidal effect rating [28]: 4 (Herbicidal rate of 70% or more and less than 90%) | O: lambsquarters, herbicidal effect rating [29]: 4 (Herbicidal rate of 70% or more and less than 90%) | herbicidal effect on D: Chinese sprangletop [30]: 4 (Herbicidal rate of 70% or more and less than 90%)
